In ChEMBL document CHEMBL1649233, “In vitro bactericidal activity of iclaprim in human plasma” (Antimicrob Agents Chemother, 2009):
Values after ≈ are worked out from the molar mass of the structure shown.

Key:
Staphylococcus aureus [1] = assay: Bactericidal activity against methicillin-susceptible Staphylococcus aureus after 24 hrs by M26-A method in presence of 50% human plasma; assay type: functional
Staphylococcus aureus [2] = assay: Ratio of MBC to MIC for methicillin-susceptible Staphylococcus aureus; assay type: functional
Staphylococcus aureus [3] = assay: Bactericidal activity against methicillin-resistant Staphylococcus aureus 50478 on CAMHB media at 4 times MIC by time kill analysis in presence of 50% human plasma; assay type: functional
Staphylococcus aureus [4] = assay: Bactericidal activity against methicillin-resistant Staphylococcus aureus 3817 on CAMHB media at 4 times MIC by time kill analysis; assay type: functional
Staphylococcus aureus [5] = assay: Antimicrobial activity against methicillin-resistant Staphylococcus aureus by broth microdilution method; assay type: functional
Staphylococcus aureus [6] = assay: Bactericidal activity against methicillin-resistant Staphylococcus aureus 20 on CAMHB media at 4 times MIC by time kill analysis; assay type: functional
Staphylococcus aureus [7] = assay: Bactericidal activity against methicillin-susceptible Staphylococcus aureus after 24 hrs by M26-A method; assay type: functional
Staphylococcus aureus [8] = assay: Bactericidal activity against methicillin-resistant Staphylococcus aureus after 24 hrs by M26-A method; assay type: functional
Staphylococcus aureus [9] = assay: Bactericidal activity against methicillin-resistant Staphylococcus aureus 6 on CAMHB media at 4 times MIC by time kill analysis in presence of 50% human plasma; assay type: functional
Staphylococcus aureus [10] = assay: Antimicrobial activity against methicillin-resistant Staphylococcus aureus by broth microdilution method in presence of 50% human plasma; assay type: functional
Staphylococcus aureus [11] = assay: Bactericidal activity against methicillin-resistant Staphylococcus aureus after 24 hrs by M26-A method in presence of 50% human plasma; assay type: functional
Staphylococcus aureus [12] = assay: Ratio of MIC for glycopeptide-nonsusceptible Staphylococcus aureus NJ992 in presence of 50% heat inactivated serum to MIC for glycopeptide-nonsusceptible Staphylococcus aureus NJ992; assay type: functional
Staphylococcus aureus [13] = assay: Bactericidal activity against methicillin-resistant Staphylococcus aureus 50478 on CAMHB media at 4 times MIC by time kill analysis; assay type: functional
Staphylococcus aureus [14] = assay: Bactericidal activity against methicillin-resistant Staphylococcus aureus 20 on CAMHB media at 4 times MIC by time kill analysis in presence of 50% human plasma; assay type: functional
Staphylococcus aureus [15] = assay: Antimicrobial activity against methicillin-susceptible Staphylococcus aureus by broth microdilution method; assay type: functional
Staphylococcus aureus [16] = assay: Ratio of MBC to MIC for methicillin-susceptible Staphylococcus aureus in presence of 50% human plasma; assay type: functional
Staphylococcus aureus [17] = assay: Bactericidal activity against methicillin-susceptible Staphylococcus aureus ATCC 25923 on CAMHB media at 4 times MIC by time kill analysis; assay type: functional
Staphylococcus aureus [18] = assay: Bactericidal activity against methicillin-susceptible Staphylococcus aureus ATCC 25923 on CAMHB media at 4 times MIC by time kill analysis in presence of 50% human plasma; assay type: functional
[19] = Plasma protein binding in human; assay type: ADME, cell-free; details: read-out: PPB (converted)
Staphylococcus aureus [20] = assay: Antimicrobial activity against methicillin-susceptible Staphylococcus aureus by broth microdilution method in presence of 50% human plasma; assay type: functional
Staphylococcus aureus [21] = assay: Bactericidal activity against methicillin-resistant Staphylococcus aureus 3817 on CAMHB media at 4 times MIC by time kill analysis in presence of 50% human plasma; assay type: functional
Staphylococcus aureus [22] = assay: Bactericidal activity against methicillin-resistant Staphylococcus aureus 6 on CAMHB media at 4 times MIC by time kill analysis; assay type: functional

SMILES	MBC (Staphylococcus aureus [1]) [µg/mL]	Ratio (Staphylococcus aureus [2])	Time (Staphylococcus aureus [3]) [h]	Time (Staphylococcus aureus [4]) [h]	MIC (Staphylococcus aureus [5]) [µg/mL]	Time (Staphylococcus aureus [6]) [h]	MBC (Staphylococcus aureus [7]) [µg/mL]	MBC (Staphylococcus aureus [8]) [µg/mL]	MIC (Staphylococcus aureus [10]) [µg/mL]	MBC (Staphylococcus aureus [11]) [µg/mL]	Time (Staphylococcus aureus [14]) [h]	MIC (Staphylococcus aureus [15]) [µg/mL]	Ratio (Staphylococcus aureus [16])	Time (Staphylococcus aureus [17]) [h]	Time (Staphylococcus aureus [18]) [h]	fraction unbound [19]	MIC (Staphylococcus aureus [20]) [µg/mL]	further results
COc1cc(Cc2cnc(N)nc2N)c2c(c1OC)OC(C1CC1)C=C2 (configuration not stated)	0.11	1	6	6.1	0.09 (≈ 0.254 µM)	5.5	0.1 (≈ 0.282 µM)	0.1 (≈ 0.282 µM)	0.11	0.11	5	0.09 (≈ 0.254 µM)	1	6.2	7.2	0.07	0.11	Time (Staphylococcus aureus [9]): 7.6 h; Ratio (Staphylococcus aureus [12]): 1; Time (Staphylococcus aureus [13]): 6.8 h
CC(=O)N[C@@H]1[C@H](Oc2c3cc4cc2Oc2ccc(cc2Cl)[C@@H](O[C@@H]2O[C@@H](CO)[C@@H](O)[C@H](O)[C@@H]2NC(C)=O)[C@@H]2NC(=O)[C@H](NC(=O)[C@@H]4NC(=O)[C@H]4NC(=O)[C@@H](Cc5ccc(c(Cl)c5)O3)NC(=O)[C@H](N)c3ccc(O)c(c3)Oc3cc(O)cc4c3)c3ccc(O)c(c3)-c3c(O[C@H]4O[C@H](CO)[C@@H](O)[C@@H](O)[C@@H]4O)cc(O)cc3[C@@H](C(=O)O)NC2=O)O[C@@H](CO)[C@@H](O)[C@@H]1O	1.68	1			1.07 (≈ 0.605 µM)		1.41 (≈ 0.798 µM)	1.41 (≈ 0.798 µM)	1.23	1.68		1.07 (≈ 0.605 µM)	1				1.23	
CN[C@H](CC(C)C)C(=O)N[C@H]1C(=O)N[C@@H](CC(N)=O)C(=O)N[C@H]2C(=O)N[C@H]3C(=O)N[C@H](C(=O)N[C@H](C(=O)O)c4cc(O)cc(O)c4-c4cc3ccc4O)[C@H](O)c3ccc(c(Cl)c3)Oc3cc2cc(c3O[C@@H]2O[C@H](CO)[C@@H](O)[C@H](O)[C@H]2O[C@H]2C[C@](C)(N)[C@H](O)[C@H](C)O2)Oc2ccc(cc2Cl)[C@H]1O [VANCOMYCIN]	1.52		12	17	1.62 (≈ 1.12 µM)	10.6	1.74 (≈ 1.2 µM)	1.74 (≈ 1.2 µM)	1.46	1.52	17	1.62 (≈ 1.12 µM)		15	12.8	0.45	1.46	Time (Staphylococcus aureus [21]): 15.6 h; Time (Staphylococcus aureus [22]): 13.5 h
CC(=O)O[C@H]1C[C@@]2(C)[C@@H](C[C@@H](O)[C@H]3[C@@]4(C)CC[C@@H](O)[C@@H](C)[C@@H]4CC[C@@]32C)/C1=C(\CCC=C(C)C)C(=O)O [FUSIDIC ACID]		2			0.14 (≈ 0.271 µM)				6.73			0.14 (≈ 0.271 µM)	4			0.03	6.73	
CC(=O)NC[C@H]1CN(c2ccc(N3CCOCC3)c(F)c2)C(=O)O1 [LINEZOLID]	> 32				3.73 (≈ 11.1 µM)		> 32	> 32	2.55	> 32		3.73 (≈ 11.1 µM)					2.55	
